From patent publication US5438060A, “Method of reducing elevated intraocular pressure” (priority 1994, dated 1995)
Where a name gives a salt, the structure may show the parent alone. Read-outs that look alike come from different tables or passages of the source.

Assays:
intraocular pressure = experiment: Experiment 1: ocular hypotensive effect of eye drops in rabbits (applanation pneumatonograph); assay type: in vivo, Male Japanese White rabbits; conditions: for Difference in IOP between the control and test eyes: 50 μl
Method: The ocular hypotensive effect of the eye drops of this invention was investigated in rabbits. The same experiment was also conducted using a representative β-adrenergic blocking agent, and its ocular hypotensive effect was compared with that of eye drops of this invention. Methods: […] […] Male Japanese White rabbits (body weight: ca. 2 kg) with normal intraocular pressure were used in the experiment. […] For each solution, five rabbits were used. After anesthesia of the corneal surface by instillating 5 μl of 0.4%. oxybuprocaine hydrochloride, the intraocular pressure was measured using an applanation pneumatonograph (Alcon) before and after the instillation of the test solution and control solution. Measurement of intraocular pressure after the instillation was conducted with one-hour intervals until six hours post-instillation.

rabbit eyes = experiment: Experiment 2: eye irritation test (modified Draize test); assay type: in vivo, Male Japanese White rabbits
[1] = mice, cited from earlier work
[2] = 0.5% eye drops, before instillation

What does the source list for `OCCN(CCO)c1nc(N2CCCCC2)c2nc(N(CCO)CCO)nc(N3CCCCC3)c2n1` [Compound (1), dipyridamole]?
Difference in IOP between the control and test eyes (intraocular pressure; 0.00005% (free base), 1 hr): -0.60 mmHg; Difference in IOP between the control and test eyes (intraocular pressure; 0.00005% (free base), 2 hr): -0.50 mmHg; Difference in IOP between the control and test eyes (intraocular pressure; 0.00005% (free base), 4 hr): -0.20 mmHg; Difference in IOP between the control and test eyes (intraocular pressure; 0.00005% (free base), 6 hr): -0.10 mmHg; time of maximal IOP reduction after instillation (intraocular pressure; 0.00005% eye drops): one; Difference in IOP between the control and test eyes (intraocular pressure; 0.0001% (free base), 1 hr): -1.30 mmHg; Difference in IOP between the control and test eyes (intraocular pressure; 0.0001% (free base), 2 hr): -0.95 mmHg; Difference in IOP between the control and test eyes (intraocular pressure; 0.0001% (free base), 4 hr): -0.30 mmHg; Difference in IOP between the control and test eyes (intraocular pressure; 0.0001% (free base), 6 hr): -0.20 mmHg; time of maximal IOP reduction after instillation (intraocular pressure; 0.0001% eye drops): one; ocular hypotensive effect remained unchanged after instillation (intraocular pressure; 0.0005% eye drops): 2.0 h; Difference in IOP between the control and test eyes (intraocular pressure; 0.001% (free base), 1 hr): -2.00 mmHg; Difference in IOP between the control and test eyes (intraocular pressure; 0.001% (free base), 2 hr): -1.56 mmHg; Difference in IOP between the control and test eyes (intraocular pressure; 0.001% (free base), 4 hr): -1.00 mmHg; Difference in IOP between the control and test eyes (intraocular pressure; 0.001% (free base), 6 hr): -0.75 mmHg; time of maximal IOP reduction after instillation (intraocular pressure; 0.001% eye drops): one; Difference in IOP between the control and test eyes (intraocular pressure; 0.01% (free base), 1 hr): -3.44 mmHg; Difference in IOP between the control and test eyes (intraocular pressure; 0.01% (free base), 2 hr): -2.25 mmHg; Difference in IOP between the control and test eyes (intraocular pressure; 0.01% (free base), 4 hr): -1.31 mmHg; Difference in IOP between the control and test eyes (intraocular pressure; 0.01% (free base), 6 hr): -1.00 mmHg; ocular hypotensive effect remained unchanged after instillation (intraocular pressure; 0.01% eye drops): six; time of maximal IOP reduction after instillation (intraocular pressure; 0.01% eye drops): one; Difference in IOP between the control and test eyes (intraocular pressure; 0.1% (free base), 1 hr): -4.50 mmHg; Difference in IOP between the control and test eyes (intraocular pressure; 0.1% (free base), 2 hr): -3.05 mmHg; Difference in IOP between the control and test eyes (intraocular pressure; 0.1% (free base), 4 hr): -2.40 mmHg; Difference in IOP between the control and test eyes (intraocular pressure; 0.1% (free base), 6 hr): -1.00 mmHg; average difference of the IOP from the control eye drops (intraocular pressure; 0.1% eye drops): 4.5 mmHg; ocular hypotensive effect retained after instillation (intraocular pressure; 0.1% eye drops): six; time of maximal IOP reduction after instillation (intraocular pressure; 0.1% eye drops): one; Difference in IOP between the control and test eyes (intraocular pressure; 0.5% (free base), 1 hr): -3.94 mmHg; Difference in IOP between the control and test eyes (intraocular pressure; 0.5% (free base), 2 hr): -4.40 mmHg; Difference in IOP between the control and test eyes (intraocular pressure; 0.5% (free base), 4 hr): -3.10 mmHg; Difference in IOP between the control and test eyes (intraocular pressure; 0.5% (free base), 6 hr): -1.60 mmHg; ocular hypotensive effect remained unchanged after instillation (intraocular pressure; 0.5% eye drops): six; time of maximal IOP reduction after instillation (intraocular pressure; 0.5% eye drops): two; score for the tunica conjunctiva bulbi versus control solution (rabbit eyes; 0.5% eye drops): slightly higher than that for the control solution; Conjunctivae: Chemosis (average score) (rabbit eyes; 0.5% eye drops, 0.5 hours): 0; Conjunctivae: Condition of haw (average score) (rabbit eyes; 0.5% eye drops, 0.5 hours): 0.6; Conjunctivae: Discharge (average score) (rabbit eyes; 0.5% eye drops, 0.5 hours): 0; Conjunctivae: Redness of tunica conjunctivae bulbi (average score) (rabbit eyes; 0.5% eye drops, 0.5 hours): 0.9; Conjunctivae: Redness of tunica conjunctivae palpebrarum (average score) (rabbit eyes; 0.5% eye drops, 0.5 hours): 1.5; Cornea: Area of cornea involved (average score) (rabbit eyes; 0.5% eye drops, 0.5 hours): 0; Cornea: Opacity degree of density (average score) (rabbit eyes; 0.5% eye drops, 0.5 hours): 0; Iris: values (average score) (rabbit eyes; 0.5% eye drops, 0.5 hours): 0.5; congestion in the iris (rabbit eyes; 0.5% eye drops, 0.5 hours after instillation): slight congestion; Conjunctivae: Chemosis (average score) (rabbit eyes; 0.5% eye drops, 1 hour): 0; Conjunctivae: Condition of haw (average score) (rabbit eyes; 0.5% eye drops, 1 hour): 0.5; Conjunctivae: Discharge (average score) (rabbit eyes; 0.5% eye drops, 1 hour): 0; Conjunctivae: Redness of tunica conjunctivae bulbi (average score) (rabbit eyes; 0.5% eye drops, 1 hour): 1.1; Conjunctivae: Redness of tunica conjunctivae palpebrarum (average score) (rabbit eyes; 0.5% eye drops, 1 hour): 1.8; Cornea: Area of cornea involved (average score) (rabbit eyes; 0.5% eye drops, 1 hour): 0; Cornea: Opacity degree of density (average score) (rabbit eyes; 0.5% eye drops, 1 hour): 0; Iris: values (average score) (rabbit eyes; 0.5% eye drops, 1 hour): 1.0; Conjunctivae: Chemosis (average score) (rabbit eyes; 0.5% eye drops, 2 hours): 0; Conjunctivae: Condition of haw (average score) (rabbit eyes; 0.5% eye drops, 2 hours): 0.5; Conjunctivae: Discharge (average score) (rabbit eyes; 0.5% eye drops, 2 hours): 0; Conjunctivae: Redness of tunica conjunctivae bulbi (average score) (rabbit eyes; 0.5% eye drops, 2 hours): 0.9; Conjunctivae: Redness of tunica conjunctivae palpebrarum (average score) (rabbit eyes; 0.5% eye drops, 2 hours): 1.8; Cornea: Area of cornea involved (average score) (rabbit eyes; 0.5% eye drops, 2 hours): 0; Cornea: Opacity degree of density (average score) (rabbit eyes; 0.5% eye drops, 2 hours): 0; Iris: values (average score) (rabbit eyes; 0.5% eye drops, 2 hours): 0.8; Conjunctivae: Chemosis (average score) (rabbit eyes; 0.5% eye drops, 3 hours): 0; Conjunctivae: Condition of haw (average score) (rabbit eyes; 0.5% eye drops, 3 hours): 0.5; Conjunctivae: Discharge (average score) (rabbit eyes; 0.5% eye drops, 3 hours): 0; Conjunctivae: Redness of tunica conjunctivae bulbi (average score) (rabbit eyes; 0.5% eye drops, 3 hours): 0.5; Conjunctivae: Redness of tunica conjunctivae palpebrarum (average score) (rabbit eyes; 0.5% eye drops, 3 hours): 1.3; Cornea: Area of cornea involved (average score) (rabbit eyes; 0.5% eye drops, 3 hours): 0; Cornea: Opacity degree of density (average score) (rabbit eyes; 0.5% eye drops, 3 hours): 0; Iris: values (average score) (rabbit eyes; 0.5% eye drops, 3 hours): 0.5; Conjunctivae: Chemosis (average score) (rabbit eyes; 0.5% eye drops, 6 hours): 0; Conjunctivae: Condition of haw (average score) (rabbit eyes; 0.5% eye drops, 6 hours): 0.5; Conjunctivae: Discharge (average score) (rabbit eyes; 0.5% eye drops, 6 hours): 0; Conjunctivae: Redness of tunica conjunctivae bulbi (average score) (rabbit eyes; 0.5% eye drops, 6 hours): 0.1; Conjunctivae: Redness of tunica conjunctivae palpebrarum (average score) (rabbit eyes; 0.5% eye drops, 6 hours): 0.8; Cornea: Area of cornea involved (average score) (rabbit eyes; 0.5% eye drops, 6 hours): 0; Cornea: Opacity degree of density (average score) (rabbit eyes; 0.5% eye drops, 6 hours): 0; Iris: values (average score) (rabbit eyes; 0.5% eye drops, 6 hours): 0; congestion in the iris (rabbit eyes; 0.5% eye drops, after 6 hours): disappeared; Conjunctivae: Chemosis (average score) (rabbit eyes; [2]): 0; Conjunctivae: Condition of haw (average score) (rabbit eyes; [2]): 0.4; Conjunctivae: Discharge (average score) (rabbit eyes; [2]): 0; Conjunctivae: Redness of tunica conjunctivae bulbi (average score) (rabbit eyes; [2]): 0.1; Conjunctivae: Redness of tunica conjunctivae palpebrarum (average score) (rabbit eyes; [2]): 0.8; Cornea: Area of cornea involved (average score) (rabbit eyes; [2]): 0; Cornea: Opacity degree of density (average score) (rabbit eyes; [2]): 0; Iris: values (average score) (rabbit eyes; [2]): 0; other irritation items, test solution versus control solution (rabbit eyes; 0.5% eye drops, irrespective of time): no difference; irritation to rabbit eyes (overall) (rabbit eyes; eye drops of the present invention): negligible irritation; LD50 ([1]; intravenous injection): 150 mg/kg; LD50 ([1]; subcutaneous administration): 2700 mg/kg

For `CC(C)(C)NC[C@H](O)COc1nsnc1N1CCOCC1` [Timolol maleate, timolol maleate], which “Difference in IOP between the control and test eyes” value (intraocular pressure; 0.5% (free base), 1 hr) is on record?
Its value is -0.80 mmHg.

And the “Difference in IOP between the control and test eyes” value (intraocular pressure; 0.5% (free base), 2 hr)?
The value was -0.80 mmHg.

What about the “Difference in IOP between the control and test eyes” value (intraocular pressure; 0.5% (free base), 4 hr) of the same compound?
The value was -0.25 mmHg.

What about the “Difference in IOP between the control and test eyes” value (intraocular pressure; 0.5% (free base), 6 hr) of the same compound?
The value was -0.10 mmHg.

What about the IOP reduction (intraocular pressure; 0.5% eye drops, one hour after instillation) of the same compound?
Its IOP reduction is 0.8 mmHg.

And the IOP reduction (intraocular pressure; 0.5% eye drops, two hours after instillation)?
Its IOP reduction is 0.8 mmHg.

And the “degree of the IOP reduction compared with the 0.0001% eye drops of the invention” value (intraocular pressure; 0.5% timolol eye drops)?
The value was “significantly less”.
